How the values were obtained:
[1] = molecular target: αvβ6 (Homo sapiens, UniProt P06756+P18564); assay: Solid Phase Integrin αvβ6 Assay; type: binding
Outline: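 Inhibition of αvβ6 binding to immobilized recombinant TGFb1-LAP (1 μg/mL coating), 1 h at room temperature with 1 mM MnCl2 in BSA/TBST buffer, integrin diluted to 0.2 μg/mL before addition. Streptavidin-HRP/TMB read-out; four-parameter logistic fitting gave IC50.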

[2] = molecular target: αvβ1 (Homo sapiens, UniProt P05556+P06756); assay: Solid Phase Integrin αvβ1 Assay; type: binding
αvβ1, sequence (P06756 31-992 limits assumed): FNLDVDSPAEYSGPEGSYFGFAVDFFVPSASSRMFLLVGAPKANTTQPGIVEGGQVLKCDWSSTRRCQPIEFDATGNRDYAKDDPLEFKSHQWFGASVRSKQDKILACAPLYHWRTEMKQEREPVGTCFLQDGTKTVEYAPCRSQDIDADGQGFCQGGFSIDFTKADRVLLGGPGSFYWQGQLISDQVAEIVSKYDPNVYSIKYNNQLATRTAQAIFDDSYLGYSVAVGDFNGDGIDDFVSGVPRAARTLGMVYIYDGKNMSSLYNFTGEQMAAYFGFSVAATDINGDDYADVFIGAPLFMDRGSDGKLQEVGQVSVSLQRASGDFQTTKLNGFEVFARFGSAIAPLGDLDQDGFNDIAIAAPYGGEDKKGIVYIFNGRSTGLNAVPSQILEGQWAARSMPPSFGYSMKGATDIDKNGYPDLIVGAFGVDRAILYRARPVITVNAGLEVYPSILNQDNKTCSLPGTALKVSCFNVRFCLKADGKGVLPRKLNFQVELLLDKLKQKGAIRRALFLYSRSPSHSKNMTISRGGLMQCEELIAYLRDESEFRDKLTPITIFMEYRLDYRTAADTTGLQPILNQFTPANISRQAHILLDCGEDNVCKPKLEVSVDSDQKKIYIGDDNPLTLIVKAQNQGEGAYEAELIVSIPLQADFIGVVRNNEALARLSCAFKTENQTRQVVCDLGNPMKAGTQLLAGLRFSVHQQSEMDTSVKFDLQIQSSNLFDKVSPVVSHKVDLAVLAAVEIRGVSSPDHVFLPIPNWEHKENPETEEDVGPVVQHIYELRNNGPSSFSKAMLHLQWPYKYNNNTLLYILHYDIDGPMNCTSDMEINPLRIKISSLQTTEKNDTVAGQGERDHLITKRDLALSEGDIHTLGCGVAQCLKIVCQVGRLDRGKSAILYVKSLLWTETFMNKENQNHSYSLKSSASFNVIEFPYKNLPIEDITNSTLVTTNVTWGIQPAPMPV
αvβ1, sequence (P05556 21-728 limits assumed): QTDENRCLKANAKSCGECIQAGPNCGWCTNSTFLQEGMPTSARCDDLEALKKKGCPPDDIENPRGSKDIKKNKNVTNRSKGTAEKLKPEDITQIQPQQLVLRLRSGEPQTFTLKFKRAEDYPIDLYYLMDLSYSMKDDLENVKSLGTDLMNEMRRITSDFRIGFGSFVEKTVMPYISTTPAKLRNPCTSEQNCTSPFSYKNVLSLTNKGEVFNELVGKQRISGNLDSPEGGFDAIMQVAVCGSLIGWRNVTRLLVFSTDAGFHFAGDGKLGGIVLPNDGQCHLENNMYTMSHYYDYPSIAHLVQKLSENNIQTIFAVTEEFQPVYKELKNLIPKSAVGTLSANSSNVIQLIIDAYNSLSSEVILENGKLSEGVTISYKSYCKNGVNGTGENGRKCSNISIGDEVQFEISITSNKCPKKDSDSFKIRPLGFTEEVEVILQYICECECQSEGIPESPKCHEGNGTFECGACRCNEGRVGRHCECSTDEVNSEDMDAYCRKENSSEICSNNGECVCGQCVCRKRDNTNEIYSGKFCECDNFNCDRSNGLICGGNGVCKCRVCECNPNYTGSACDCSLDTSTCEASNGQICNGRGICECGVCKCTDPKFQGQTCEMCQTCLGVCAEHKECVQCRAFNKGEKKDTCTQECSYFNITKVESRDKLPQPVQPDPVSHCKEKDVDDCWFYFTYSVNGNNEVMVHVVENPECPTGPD
Outline: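 Compound competes for αvβ1 binding to immobilized TGFb1-LAP (1 µg/mL coat) in Mn2+ (1 mM MnCl2), 2% BSA binding buffer over 90 min at room temperature, integrin added at 0.2 µg/mL. Read-out: streptavidin-HRP/TMB; IC50 from Levenberg-Marquardt four-parameter fit.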

αvβ6, sequence (P06756 31-992 limits assumed): as the sequence (P06756 31-992 limits assumed) above
αvβ6, sequence (P18564 22-707 limits assumed): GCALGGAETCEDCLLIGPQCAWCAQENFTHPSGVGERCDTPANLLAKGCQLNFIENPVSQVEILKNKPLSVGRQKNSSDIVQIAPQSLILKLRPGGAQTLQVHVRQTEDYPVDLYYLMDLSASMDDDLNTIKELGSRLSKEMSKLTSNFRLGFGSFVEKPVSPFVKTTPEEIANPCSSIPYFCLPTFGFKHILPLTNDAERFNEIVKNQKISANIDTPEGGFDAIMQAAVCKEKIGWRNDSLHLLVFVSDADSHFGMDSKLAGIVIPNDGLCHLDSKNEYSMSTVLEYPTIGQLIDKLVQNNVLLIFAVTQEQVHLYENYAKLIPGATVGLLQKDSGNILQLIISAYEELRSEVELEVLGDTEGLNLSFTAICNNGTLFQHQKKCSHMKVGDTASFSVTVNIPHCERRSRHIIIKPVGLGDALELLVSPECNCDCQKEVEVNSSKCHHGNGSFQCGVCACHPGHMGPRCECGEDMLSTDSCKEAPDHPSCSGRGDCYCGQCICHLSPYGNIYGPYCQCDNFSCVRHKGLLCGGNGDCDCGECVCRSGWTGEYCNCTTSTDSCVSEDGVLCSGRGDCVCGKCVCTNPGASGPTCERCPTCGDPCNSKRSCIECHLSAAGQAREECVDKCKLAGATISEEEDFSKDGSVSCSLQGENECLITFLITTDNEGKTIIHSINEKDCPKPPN

SMILES	IC50 [1] [nM]	IC50 [2] [nM]
O=C(O)[C@](O)(CO[C@@H]1CCCN(CCCc2ccc3c(n2)NCCC3)C1)c1ccccc1 [Compound 452]	> 1000	> 1000
O=C(O)[C@@](O)(CO[C@@H]1CCCN(CCCc2ccc3c(n2)NCCC3)C1)c1ccccc1 [Compound 453]	> 1000	> 1000
O=C(O)[C@@](O)(CO[C@@H]1CCCN(CCCCc2ccc3c(n2)NCCC3)C1)c1ccccc1 [Compound 454]	> 1000	> 1000
O=C(O)[C@](O)(CO[C@@H]1CCCN(CCCCc2ccc3c(n2)NCCC3)C1)c1ccccc1 [Compound 455]	> 1000	> 1000
O=C(O)C[C@H](CO[C@@H]1CCCN(CCCc2ccc3c(n2)NCCC3)C1)c1ccccc1-c1ccccc1 [Compound 460]	> 1000	> 1000
O=C(O)C[C@@H](CO[C@@H]1CCCN(CCCc2ccc3c(n2)NCCC3)C1)c1ccccc1-c1ccccc1 [Compound 461]	> 1000	> 1000
O=C(O)C[C@@H](CO[C@@H]1CCCN(CCCc2ccc3c(n2)NCCC3)C1)c1cccc(N2C[C@@H]3CC[C@H]2CO3)c1 [Compound 464]	100 to 1000	100 to 1000
O=C(N[C@@H](CCO[C@@H]1CCCN(CCCc2ccc3c(n2)NCCC3)C1)C(=O)O)c1c(F)cc(N2CCOC[C@@H]2C(F)(F)F)cc1F [Compound 466]	100 to 1000	< 100
O=C(O)[C@H](CCO[C@@H]1CCCN(CCCc2ccc3c(n2)NCCC3)C1)Nc1ncnc2ccsc12 [Compound 470]	100 to 1000	100 to 1000
Cc1csc2c(N[C@@H](CCO[C@@H]3CCCN(CCCc4ccc5c(n4)NCCC5)C3)C(=O)O)ncnc12 [Compound 471]	100 to 1000	100 to 1000
Cc1csc2ncnc(N[C@@H](CCO[C@@H]3CCCN(CCCc4ccc5c(n4)NCCC5)C3)C(=O)O)c12 [Compound 473]	> 1000	> 1000
O=C(O)[C@H](CCO[C@@H]1CCCN(CCCc2ccc3c(n2)NCCC3)C1)Nc1ncnc2cc(C(F)(F)F)ccc12 [Compound 475]	> 1000	> 1000
O=C(O)[C@@](O)(CO[C@@H]1CCCN(Cc2ccc3c(n2)NCCC3)C1)c1ccccc1 [Compound 477]	> 1000	> 1000
O=C(O)[C@](O)(CO[C@@H]1CCCN(Cc2ccc3c(n2)NCCC3)C1)c1ccccc1 [Compound 478]	> 1000	> 1000
O=C(N[C@H](CCO[C@@H]1CCCN(CCCc2ccc3c(n2)NCCC3)C1)C(=O)O)c1ccccc1 [Compound 479]	100 to 1000	100 to 1000
O=C(N[C@H](CCO[C@@H]1CCCN(CCCc2ccc3c(n2)NCCC3)C1)C(=O)O)c1c(F)cccc1F [Compound 480]	100 to 1000	100 to 1000
O=C(O)[C@@H](CCO[C@@H]1CCCN(CCCc2ccc3c(n2)NCCC3)C1)c1ccc(C2CC2)cc1 [Compound 484]	> 1000	> 1000
O=C(O)[C@@H](CCO[C@@H]1CCCN(CCCc2ccc3c(n2)NCCC3)C1)c1ccc(F)c(-c2ccccc2)c1 [Compound 485]	> 1000	> 1000
O=C(O)C[C@H](CO[C@@H]1CCCN(CCCc2ccc3c(n2)NCCC3)C1)c1cccc([C@H]2CCOC2)c1 [Compound 493]	100 to 1000	100 to 1000
O=C(N[C@H](CCO[C@@H]1CCCN(CCCc2ccc3c(n2)NCCC3)C1)C(=O)O)c1c(F)cc(N2CCOC[C@@H]2C(F)(F)F)cc1F [Compound 494]	> 1000	> 1000
O=C(O)[C@@H](CCO[C@@H]1CCCN(CCCc2ccc3c(n2)NCCC3)C1)NC(=O)[C@@H]1CCCN1S(=O)(=O)c1ccccc1 [Compound 495]	> 1000	< 100
O=C(N[C@H](CCO[C@@H]1CCCN(CCCc2ccc3c(n2)NCCC3)C1)C(=O)O)c1cc(Cl)cc(Cl)c1 [Compound 496]	100 to 1000	> 1000
O=C(O)[C@H](CCO[C@@H]1CCCN(CCCc2ccc3c(n2)NCCC3)C1)c1cccc2c1cnn2CC1CC1 [Compound 500]	100 to 1000	> 1000
O=C(O)[C@H](CCO[C@@H]1CCCN(CCCc2ccc3c(n2)NCCC3)C1)c1cccc2nn(CC3CC3)cc12 [Compound 501]	100 to 1000	> 1000
O=C(O)[C@@H](CCO[C@@H]1CCCN(CCCc2ccc3c(n2)NCCC3)C1)Nc1ncnc2cc(F)c(F)cc12 [Compound 503]	100 to 1000	> 1000
O=C(O)C(CCO[C@@H]1CCCN(CCCc2ccc3c(n2)NCCC3)C1)c1ccnc(-c2ccccc2)c1 (some centres unmarked) [Compound 505]	> 1000	> 1000

More lines, now with the values ahead:

IC50 [1] [nM]	IC50 [2] [nM]	SMILES
< 100	< 100	O=C(NC[C@H](Nc1ncc(C(F)(F)F)cn1)C(=O)O)[C@@H]1CCCN(CCCc2ccc3c(n2)NCCC3)C1 [Compound 451]
< 100	< 100	O=C(O)C[C@H](CO[C@@H]1CCCN(CCCc2ccc3c(n2)NCCC3)C1)c1cccc(-c2ccccc2)c1 [Compound 456]
100 to 1000	> 1000	O=C(O)C[C@@H](CO[C@@H]1CCCN(CCCc2ccc3c(n2)NCCC3)C1)c1cccc(-c2ccccc2)c1 [Compound 457]
< 100	< 100	O=C(O)C[C@H](CO[C@@H]1CCCN(CCCc2ccc3c(n2)NCCC3)C1)c1ccc(-c2ccccc2)cc1 [Compound 458]
100 to 1000	> 1000	O=C(O)C[C@@H](CO[C@@H]1CCCN(CCCc2ccc3c(n2)NCCC3)C1)c1ccc(-c2ccccc2)cc1 [Compound 459]
< 100	< 100	O=C(O)C[C@H](CO[C@@H]1CCCN(CCCc2ccc3c(n2)NCCC3)C1)c1cccc(N2C[C@@H]3CC[C@H]2CO3)c1 [Compound 462]
100 to 1000	100 to 1000	O=C(O)C[C@H](CO[C@@H]1CCCN(CCCc2ccc3c(n2)NCCC3)C1)c1cccc(N2C[C@H]3CC[C@@H]2CO3)c1 [Compound 463]
< 100	< 100	O=C(O)C[C@@H](CO[C@@H]1CCCN(CCCc2ccc3c(n2)NCCC3)C1)c1cccc(N2C[C@H]3CC[C@@H]2CO3)c1 [Compound 465]
< 100	< 100	O=C(N[C@@H](CCO[C@@H]1CCCN(CCCc2ccc3c(n2)NCCC3)C1)C(=O)O)c1c(F)cc(N2CCOCC2)cc1F [Compound 467]
< 100	< 100	O=C(N[C@@H](CCO[C@@H]1CCCN(CCCc2ccc3c(n2)NCCC3)C1)C(=O)O)c1c(F)cccc1F [Compound 468]
< 100	< 100	O=C(N[C@@H](CCO[C@@H]1CCCN(CCCc2ccc3c(n2)NCCC3)C1)C(=O)O)c1ccccc1 [Compound 469]
< 100	> 1000	O=C(O)[C@H](CCO[C@@H]1CCCN(CCCc2ccc3c(n2)NCCC3)C1)Nc1ncnc2sccc12 [Compound 472]
< 100	100 to 1000	O=C(O)[C@H](CCO[C@@H]1CCCN(CCCc2ccc3c(n2)NCCC3)C1)Nc1ncnc2cc(F)c(F)cc12 [Compound 474]
< 100	< 100	O=C(O)[C@H](CCO[C@@H]1CCCN(CCCc2ccc3c(n2)NCCC3)C1)NC(=O)[C@@H]1CCCN1S(=O)(=O)c1ccccc1 [Compound 476]
< 100	< 100	O=C(O)C[C@H](CO[C@@H]1CCCN(CCCc2ccc3c(n2)NCCC3)C1)c1cc(C2CC2)ccc1F [Compound 481]
< 100	< 100	O=C(O)C[C@H](CO[C@@H]1CCCN(CCCc2ccc3c(n2)NCCC3)C1)c1cccc(N2CCCC2=O)c1 [Compound 482]
< 100	< 100	O=C(O)C[C@H](CO[C@@H]1CCCN(CCCc2ccc3c(n2)NCCC3)C1)c1cc(F)cc(C2CC2)c1 [Compound 483]
< 100	100 to 1000	O=C(O)[C@@H](CCO[C@@H]1CCCN(CCCc2ccc3c(n2)NCCC3)C1)c1cccc2c1cnn2CC1CC1 [Compound 486]
< 100	< 100	O=C(O)[C@@H](CCO[C@@H]1CCCN(CCCc2ccc3c(n2)NCCC3)C1)c1cccc2nn(CC3CC3)cc12 [Compound 487]
< 100	< 100	O=C(N[C@@H](CCO[C@@H]1CCCN(CCCc2ccc3c(n2)NCCC3)C1)C(=O)O)c1cc(Cl)cc(Cl)c1 [Compound 488]
< 100	< 100	O=C(O)C[C@H](CO[C@@H]1CCCN(CCCc2ccc3c(n2)NCCC3)C1)c1cncc(C2CC2)c1 [Compound 489]
< 100	< 100	O=C(O)C[C@H](CO[C@@H]1CCCN(CCCc2ccc3c(n2)NCCC3)C1)c1ccnc(C2CC2)c1 [Compound 490]
< 100	< 100	O=C(O)C[C@H](CO[C@@H]1CCCN(CCCc2ccc3c(n2)NCCC3)C1)c1cccc([C@@H]2CCOC2)c1 [Compound 491]
< 100	< 100	O=C(O)C[C@H](CO[C@@H]1CCCN(CCCc2ccc3c(n2)NCCC3)C1)c1cccc(-n2cccn2)c1 [Compound 492]
< 100	100 to 1000	O=C(O)[C@@H](CCO[C@@H]1CCCN(CCCc2ccc3c(n2)NCCC3)C1)Nc1ncnc2cc(C(F)(F)F)ccc12 [Compound 497]
< 100	< 100	O=C(O)[C@@H](CCO[C@@H]1CCCN(CCCc2ccc3c(n2)NCCC3)C1)Nc1ncnc2sccc12 [Compound 498]
< 100	> 1000	O=C(O)[C@H](CCO[C@@H]1CCCN(CCCc2ccc3c(n2)NCCC3)C1)c1ccc(F)c(-c2ccccc2)c1 [Compound 499]
< 100	< 100	Cc1csc2ncnc(N[C@H](CCO[C@@H]3CCCN(CCCc4ccc5c(n4)NCCC5)C3)C(=O)O)c12 [Compound 502]
< 100	< 100	O=C(O)C[C@@H](CO[C@@H]1CCCN(CCCc2ccc3c(n2)NCCC3)C1)c1cccc(N2CCCC2=O)c1 [Compound 504]
